The results in this text go back to PubChem BioAssay (NCI).

Test systems include SF-295 CNS; NCI-H522 lung; HOP-62 NSCLC; COLO 205 colon; MDA-MB-435; MOLT-4 leukemia; A498 renal; MDA-MB-231 breast; OVCAR-4 ovarian; BT-549 breast.
Experiment in all cases: NCI tumour cell line growth inhibition, 48 h

SMILES strings stand for the structures.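 Cultured in 96-well plates, cells were exposed to test compound for 48 hours across five concentrations. GI50 = concentration required for 50% inhibition of growth. The concentration for full growth arrest is given as TGI.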

In the case of `COC(=O)C12CC(NC(=O)c3csc([C@@H](C[C@H](C(C)C)N(C)C(=O)[C@@H](NC(=O)[C@H]4CCCCN4C)C4CC4)OC(C)=O)n3)(C1)C2`, the GI50 in the assay on SF-295 CNS is 0.0422 µM; with NCI-H522 lung, 0.00375 µM; in the assay on HOP-62 NSCLC, 0.0347 µM; with COLO 205 colon it was 0.00972 µM; in the assay on MDA-MB-435, 0.00243 µM; in the assay on MOLT-4 leukemia it was 0.00745 µM. In addition, the GI50 in the assay with A498 renal is 0.0833 µM; in the assay with MDA-MB-231 breast, 0.0435 µM; in the assay with OVCAR-4 ovarian it was 0.427 µM; in the assay with BT-549 breast, 0.00766 µM. In addition, the TGI was above 16.7 µM in the assay with SF-295 CNS; 3.15 µM in the assay with NCI-H522 lung; above 16.7 µM in the assay on HOP-62 NSCLC; 0.201 µM in the assay with COLO 205 colon; 0.0197 µM with MDA-MB-435; above 16.7 µM with MOLT-4 leukemia. Besides, the TGI is above 4.46 µM with A498 renal, above 16.7 µM in the assay on MDA-MB-231 breast, above 16.7 µM in the assay with OVCAR-4 ovarian and 2.72 µM in the assay on BT-549 breast.

Consider `CCOc1ccc(/C(C=O)=C(\Cl)c2ccc(OC)cc2)cc1`, for which the TGI is above 100 µM in the assay with SF-295 CNS; above 100 µM in the assay on NCI-H522 lung; above 100 µM with HOP-62 NSCLC; above 100 µM in the assay with COLO 205 colon; above 100 µM in the assay with MDA-MB-435; above 31.6 µM in the assay with MOLT-4 leukemia. The TGI with A498 renal, in the assay with MDA-MB-231 breast, in the assay with OVCAR-4 ovarian and with BT-549 breast was above 100 µM throughout.

For the compound `O=c1c2cc(-c3ccccc3)sc2ncn1Cc1ccc(Cl)c(Cl)c1`, the GI50 with SF-295 CNS was 12.3 µM; in the assay with NCI-H522 lung, 6.43 µM; in the assay with HOP-62 NSCLC, 10.3 µM; with COLO 205 colon, above 100 µM; with MDA-MB-435, 40.6 µM; with MOLT-4 leukemia, 18.9 µM. In addition, the GI50 was 19.4 µM in the assay on A498 renal, 3.92 µM with MDA-MB-231 breast, 12.5 µM with OVCAR-4 ovarian and 21 µM with BT-549 breast. The TGI in the assay on SF-295 CNS is 30.6 µM; with NCI-H522 lung, 53.1 µM; in the assay with HOP-62 NSCLC, 24.7 µM; in the assay on COLO 205 colon it was above 100 µM; with MDA-MB-435, above 100 µM; in the assay on MOLT-4 leukemia it was 54.9 µM. The TGI in the assay on A498 renal was 50.3 µM; in the assay on MDA-MB-231 breast, 25 µM; in the assay with OVCAR-4 ovarian, 38 µM; in the assay with BT-549 breast, 60.4 µM.

Turning to `c1cc(-c2nnc(SSc3ncnc4nc[nH]c34)o2)ccn1`, the GI50 in the assay on SF-295 CNS was 0.51 µM; with NCI-H522 lung it was 1.63 µM; in the assay on HOP-62 NSCLC, 2.52 µM; with COLO 205 colon it was 3.3 µM; with MDA-MB-435 it was 0.497 µM; in the assay with MOLT-4 leukemia, 1.23 µM. Further, the GI50 with A498 renal is 4.61 µM; with MDA-MB-231 breast, 4.45 µM; in the assay on OVCAR-4 ovarian it was 0.519 µM; with BT-549 breast, 9.47 µM. The TGI in the assay on SF-295 CNS was 12.8 µM; with NCI-H522 lung it was above 100 µM; in the assay with HOP-62 NSCLC, above 100 µM; in the assay on COLO 205 colon, 23.8 µM; in the assay on MDA-MB-435 it was above 100 µM; with MOLT-4 leukemia, above 100 µM. Further, the TGI in the assay on A498 renal, in the assay with MDA-MB-231 breast, in the assay with OVCAR-4 ovarian and with BT-549 breast was above 100 µM in each case.

On to `[O-][N+]1(CC[N+]2([O-])CCCCC2)CCCCC1`, for which the TGI in the assay with SF-295 CNS, in the assay with NCI-H522 lung, in the assay on HOP-62 NSCLC, in the assay on COLO 205 colon, with MDA-MB-435 and in the assay on MOLT-4 leukemia was above 100 µM each time. Besides, the TGI in the assay on A498 renal, with MDA-MB-231 breast, in the assay on OVCAR-4 ovarian and with BT-549 breast was above 100 µM throughout.
